Patent publication US9605384B2, “Hydrophobic paper, cardboard, and packaging” (STL SUSTAINABLE TECHNOLOGIES, LLC, priority 2010, dated 2017)
Entries after “also recorded” stand apart in the source; their conditions may differ.

What was measured:
[1] = Stability of halosilane in saturated aqueous salt solution; assay type: physicochemical; conditions: halosilane added to saturated aqueous salt solution
Procedure: After cooling to room temperature, 25 ml of the saturated salt solution was added to a 50 ml beaker. To this, 1.2 ml of methyltrichlorosilane was slowly added and stirred into the saturated water. […] A piece of maple wood was added to the solution and vigorously stirred. The dissolved methyltrichlorosilane reacted with the wood and produced hydrochloric acid (HCl) gas as a by-product. There was a slight exotherm observed. After 2 minutes, the wood was removed from the water solution and air-dried. […] The water remained tightly beaded up and gradually evaporated after 30 minutes.

[2] = Solubility / miscibility in water; assay type: physicochemical

| Compound | reaction with water of the saturated salt solution [1] | miscibility with water [2] |
| --- | --- | --- |
| C[Si](Cl)(Cl)Cl [methyltrichlorosilane] | did not react with the water; also recorded: no reaction; also recorded: No exotherm or reaction was observed |  |
| CCCCCCCC[Si](OCC)(OCC)OCC [n-octyltriethoxysilane] |  | not very miscible at any concentration |
| CO[Si](C)(OC)OC [methyltrimethoxysilane] |  | readily miscible with water |
